Experimental data as given in patent US11357857B2, “Excipient compounds for protein processing” (COMERA LIFE SCIENCES, INC., priority 2014, dated 2022).
Where two headings read alike, the source gives them in different places.

Assays:
bevacizumab (AVASTIN®) = test: Viscosity of concentrated AVASTIN with and without caffeine, microVisc (Example 40); details: for % Viscosity Reduction from Excipient: 10 mg/mL caffeine
Experimental: The sample was concentrated in Amicon Ultra 4 centrifugal concentrator tubes (MWCO 30 kDa) at 3500 rpm. […] AVASTIN® stock solution was diluted with the excipient buffer then concentrated in Amicon Ultra 15 centrifugal concentrator tubes (MWCO 30 kDa). The concentration of the excipient samples was determined by Bradford assay and the viscosity was measured using the RheoSense microVisc.

[1] = test system: bovine gamma globulin (BGG); test: Normalized viscosity of 280 mg/mL BGG in 50 mM histidine HCl with primary/secondary excipient combinations (Example 10); format: physicochemical; details: no primary, secondary excipient 10 mg/mL
Experimental: The primary excipient compounds were selected from compounds having both anionic and aromatic functionality, as listed below in Table 5. The secondary excipient compounds were selected from compounds having either nonionic or cationic charge at pH 6 and either imidazoline or benzene rings, as listed below in Table 5. Formulations of these excipients were prepared in 50 mM histidine hydrochloride buffer solution for viscosity measurement in the following way. […] The individual primary or secondary excipient compounds were then dissolved in 50 mM histidine HCl.

[2] = test system: bovine gamma globulin (BGG); test: Viscosity of 280 mg/mL BGG in histidine buffer pH 6 versus amount of arginine or caffeine added (Example 24); format: physicochemical
[3] = test system: bovine gamma globulin (BGG); details: caffeine 10 mg/ml
Experimental: Each buffer solution contained different excipient or combination of excipients as described in the table below. The viscosity of the solutions was measured as described in previous examples.

[4] = test system: bovine gamma globulin (BGG); test: Viscosity of 280 mg/mL BGG in 20 mM histidine pH 6 with different molar caffeine concentrations, microVisc (Example 31); format: physicochemical
Experimental: The formulations for this Example were prepared in 20 mM histidine buffer for viscosity measurement in the following way.
The viscometer was equipped with an A-10 chip having a channel depth of 100 microns, and was operated at a shear rate of 250 l/s and 25° C. To measure viscosity, the test formulation was loaded into the viscometer, taking care to remove all air bubbles from the pipet. The pipet containing the loaded sample formulation was placed in the instrument and allowed to incubate at the measurement temperature for about five minutes. The instrument was then run until the channel was fully equilibrated with the test fluid, indicated by a stable viscosity reading, and then the viscosity recorded in centipoise.

[5] = test system: bovine gamma globulin (BGG); details: 280 mg/mL BGG, 20 mM histidine pH 6, 25° C.; Excipient A caffeine 15 mg/mL; no Excipient B

With `Cn1c(=O)c2c(ncn2C)n(C)c1=O` [Caffeine] the “Viscosity with 10 mg/mL added caffeine excipient” value (bevacizumab (AVASTIN®); concentration 190 mg/mL) was 13 cP, the “% Viscosity Reduction from Excipient” value (bevacizumab (AVASTIN®); concentration 190 mg/mL) was 36% and the “% Viscosity Reduction from Excipient” value (bevacizumab (AVASTIN®); concentration 266 mg/mL) was 62%. For the same compound, the “Normalized Viscosity” value [1] was 0.73, the Viscosity ([2]; caffeine added 10 mg/mL) was 60 cP and the Viscosity Reduction ([2]; caffeine added 10 mg/mL) was 31%. It also gave a Viscosity ([2]; caffeine added 15 mg/mL) of 62 cP, a Viscosity Reduction ([2]; caffeine added 15 mg/mL) of 23% and a Viscosity ([2]; caffeine added 22 mg/mL) of 50 cP. For the same compound, the Viscosity Reduction ([2]; caffeine added 22 mg/mL) was 45%, the Viscosity [3] was 87.9 cP and the “Viscosity Reduction” value [3] was 33%. The “Normalized Viscosity” value ([4]; caffeine 5 mM) was 0.81, the Viscosity ([4]; caffeine 5 mM) was 67 cP and the “Normalized Viscosity” value ([4]; caffeine 10 mM) was 0.84. The Viscosity ([4]; caffeine 10 mM) was 70 cP, the “Normalized Viscosity” value ([4]; caffeine 20 mM) was 0.92 and the Viscosity ([4]; caffeine 20 mM) was 77 cP. For the same compound, the “Normalized Viscosity” value ([4]; caffeine 30 mM) was 0.76, the Viscosity ([4]; caffeine 30 mM) was 63 cP and the “Normalized Viscosity” value ([4]; caffeine 40 mM) was 0.78. The Viscosity ([4]; caffeine 40 mM) was 65 cP, the “Normalized Viscosity” value ([4]; caffeine 50 mM) was 0.78 and the Viscosity ([4]; caffeine 50 mM) was 65 cP. For the same compound, the “Normalized Viscosity” value ([4]; caffeine 60 mM) was 0.69, the Viscosity ([4]; caffeine 60 mM) was 57 cP and the “Normalized Viscosity” value ([4]; caffeine 70 mM) was 0.60. The Viscosity ([4]; caffeine 70 mM) was 50 cP, the “Normalized Viscosity” value ([4]; caffeine 80 mM) was 0.60 and the Viscosity ([4]; caffeine 80 mM) was 50 cP. For the same compound, the “Normalized Viscosity” value [5] was 0.77.
